System: Mitochondria-located protein genes
Assay: DNA chip mRNA expression in yeast, mitochondria-located protein genes (Table 2)
Format: cell-based, Saccharomyces cerevisiae S288C
Details: cells incubated two hours with the chemical substance
Method: Yeast (Saccharomyces cerevisiae S288C (α SUC2mal mel gap2 CUP1)) were incubated at 25° C. on YPD medium (yeast extract 1%, polypepton 2%, glucose 2%). One of toxic chemical substances was added to the cells at logarithmic growth phase, and the cells were further incubated for two hours. Cells were cultured without any chemical substance in the same condition, and were used as control. Concentrations of the chemical substances were defined to inhibit the growth of the yeast but not lead to death.
After completion of the incubation, the culture was centrifuged to collect the cells. To the cells, sodium acetate buffer (50 mM sodium acetate, 10 mM EDTA, 1% SDS) was added, and the mixture was shaken at 65° C. for five minutes, followed by returning to room temperature, and obtaining the supernatant, of which the procedures were repeated two times. To the supernatant, ½ amount of a solution of phenol/chloroform was added, and the mixture was centrifuged to give a supernatant, which was added with an equal amount of chloroform, and the mixture was centrifuged to give a supernatant. To the supernatant, an equal amount of isopropanol containing 0.3 M sodium acetate was added, and the mixture was allowed to stand at room temperature for 30 minutes, after which the mixture was centrifuged to give a sediment of the whole RNAs. Seventy % ethanol was added to the sediment, and the mixture was again centrifuged to give a sediment, which was then dried and dissolved in water. mRNA was isolated from the whole RNAs as followings. In view of the fact that a poly A chain is attached to the 3′ terminus of mRNA, a polynucleotide having a poly T structure which was immobilized on the surface of latex beads was used to trap the mRNA, and then the mRNA was washed and eluted with spine column (Oligotex-dT30<Super>mRNA Purification Kit, Takara). Reverse transcription of the mRNA was conducted with a reverse transcriptase (Super Script II Reverse Transcriptase; catalogue No. 18064-014, GibcoBRL) using fluorescence-labeled nucleotides to give cDNAs that were introduced with Cy3-dUTP or Cy5-dUTP during the reverse transcription.
The labeled cDNAs were dissolved in TE buffer (10mM Tris-HCl/1 mM EDTA, pH8.0), and the solution was dropped on the DNA chip containing the whole genes of yeast (DNA Chip Research Inc. Japan) so that the cDNAs were hybridized on the DNA chip at 65° C. for over 12 hours. The fluoresces intensity of the DNA chip was read with a scanner, and the ratio relative to the fluorescence intensity resulting from the absence of chemical substance was estimated as the following, which is shown in Tables 1 to 9: […]

Measured: The level of expressed mRNA in the presence of chemical substance/The level of expressed mRNA in the absence of chemical substance

[Cl][Pb][Cl] [(4), PbCl2]
1.7: yeast gene YKL016C | yeast gene YKL141W | yeast gene YLR295C | yeast gene YMR035W | yeast gene YNL073W | yeast gene YOR020C | yeast gene YOR100C | yeast gene YPL040C | yeast gene YPR134W
1.4: yeast gene YBL099W | yeast gene YDL198C | yeast gene YDR258C | yeast gene YDR377W | yeast gene YGR062C | yeast gene YKL142W | yeast gene YMR203W | yeast gene YOR037W
0.9: yeast gene YBL030C | yeast gene YFL016C | yeast gene YJL133W | yeast gene YMR089C | yeast gene YMR152W | yeast gene YMR267W | yeast gene YNL104C | yeast gene YOR176W | yeast gene YPR067W
1.1: yeast gene YBR122C | yeast gene YDR079W | yeast gene YEL024W | yeast gene YMR083W
3.4: yeast gene YML054C
1.6: yeast gene YCR046C | yeast gene YGR244C | yeast gene YJR077C | yeast gene YKL194C | yeast gene YLR259C | yeast gene YOL096C | yeast gene YPL134C
3.5: yeast gene YDR347W
2.0: yeast gene YBR185C | yeast gene YNL055C | yeast gene YOR187W
1.2: yeast gene YBR251W | yeast gene YLR348C | yeast gene YML129C | yeast gene YPL135W | yeast gene YPL262W
3.0: yeast gene YBR091C | yeast gene YGL018C
2.1: yeast gene YLR038C
1.9: yeast gene YBR003W | yeast gene YBR044C | yeast gene YKL170W | yeast gene YLR395C | yeast gene YML120C | yeast gene YMR023C | yeast gene YOR150W
3.2: yeast gene YDR529C | yeast gene YGR008C
3.7: yeast gene YIL155C
2.2: yeast gene YDR178W
2.3: yeast gene YBR282W | yeast gene YGR076C
5.1: yeast gene YEL039C
1.0: yeast gene YAL039C | yeast gene YER178W | yeast gene YGR082W | yeast gene YJR121W | yeast gene YLL041C | yeast gene YOR130C | yeast gene YOR142W | yeast gene YPR024W
0.8: yeast gene YJL102W
1.8: yeast gene YBL038W | yeast gene YCR083W | yeast gene YDL181W | yeast gene YGL187C | yeast gene YGL191W | yeast gene YGR028W | yeast gene YHR008C | yeast gene YKL003C
0.7: yeast gene YBL022C | yeast gene YKL148C | yeast gene YKR066C | yeast gene YLR304C
1.3: yeast gene YDL067C | yeast gene YDR298C | yeast gene YJL096W | yeast gene YJL166W | yeast gene YJL180C | yeast gene YPR037C
0.6: yeast gene YNL256W
0.5: yeast gene YCL057W
2.4: yeast gene YGR174C
1.5: yeast gene YBR221C | yeast gene YDR231C | yeast gene YNL071W | yeast gene YOR316C | yeast gene YPL215W | yeast gene YPR047W

Source: patent publication US8192962B2, “Processes for detecting toxic substances” (Daikin Industries, Ltd., priority 2001, dated 2012)
